Assays:
[1] = 97.6 kPa, Liquid; for viscosity: Capillary tube (Ostwald / Ubbelohde) method; for mass density: Vibrating tube method
[2] = xn = mol fraction of the nth substance listed; details: 97.6 kPa, Liquid, x2 = 0; for viscosity: Capillary tube (Ostwald / Ubbelohde) method; for mass density: Vibrating tube method

CCCCCCCC[n+]1ccn(C)c1.[Cl-] [1-methyl-3-octylimidazolium chloride]
[1]
Details | mass density [kg/m3] | viscosity [mPa·s]
303.15 K | 1006.2 | 7339.7
308.15 K | 1003.33 | 4272.9
313.15 K | 1000.48 | 2766.9
318.15 K | 997.64 | 1788.6
323.15 K | 994.82 | 1198.7
328.15 K | 992 | 828.3
333.15 K | 989.17 | 588.69
338.15 K | 986.38 | 426.28
343.15 K | 983.63 | 316.66
348.15 K | 980.88 | 237.14
353.15 K | 978.13 | 181.41

CC(=O)N(C)C [N,N-dimethylethanamide]
[1]
Details | mass density [kg/m3] | viscosity [mPa·s]
303.15 K | 931.85 | 0.89
308.15 K | 927.26 | 0.83
313.15 K | 922.66 | 0.78
318.15 K | 918.06 | 0.74
323.15 K | 913.44 | 0.7
328.15 K | 908.81 | 0.66
333.15 K | 904.16 | 0.63
338.15 K | 899.53 | 0.6
343.15 K | 894.87 | 0.57
348.15 K | 890.19 | 0.54
353.15 K | 885.51 | 0.52

CC(=O)N(C)C [N,N-dimethylethanamide] + CCCCCCCC[n+]1ccn(C)c1.[Cl-]
[2]
Details | mass density [kg/m3] | viscosity [mPa·s]
303.15 K | 931.85 | 0.89
308.15 K | 927.26 | 0.83
313.15 K | 922.66 | 0.78
318.15 K | 918.06 | 0.74
323.15 K | 913.44 | 0.7
328.15 K | 908.81 | 0.66
333.15 K | 904.16 | 0.63
338.15 K | 899.53 | 0.6
343.15 K | 894.87 | 0.57
348.15 K | 890.19 | 0.54
353.15 K | 885.51 | 0.52

C[S+](C)[O-] [dimethyl sulfoxide]
[1]
Details | mass density [kg/m3] | viscosity [mPa·s]
303.15 K | 1090.29 | 1.8
308.15 K | 1085.28 | 1.66
313.15 K | 1080.3 | 1.53
318.15 K | 1075.31 | 1.41
323.15 K | 1070.32 | 1.3
328.15 K | 1065.33 | 1.21
333.15 K | 1060.34 | 1.13
338.15 K | 1055.34 | 1.06
343.15 K | 1050.35 | 0.99
348.15 K | 1045.34 | 0.93
353.15 K | 1040.33 | 0.88

C[S+](C)[O-] [dimethyl sulfoxide] + CCCCCCCC[n+]1ccn(C)c1.[Cl-]
[2]
Details | mass density [kg/m3] | viscosity [mPa·s]
303.15 K | 1090.29 | 1.8
308.15 K | 1085.28 | 1.66
313.15 K | 1080.3 | 1.53
318.15 K | 1075.31 | 1.41
323.15 K | 1070.32 | 1.3
328.15 K | 1065.33 | 1.21
333.15 K | 1060.34 | 1.13
338.15 K | 1055.34 | 1.06
343.15 K | 1050.35 | 0.99
348.15 K | 1045.34 | 0.93
353.15 K | 1040.33 | 0.88

CN(C)C=O [dimethylformamide]
[1]
Details | mass density [kg/m3] | viscosity [mPa·s]
303.15 K | 939.18 | 0.77
308.15 K | 934.41 | 0.72
313.15 K | 929.64 | 0.68
318.15 K | 924.86 | 0.65
323.15 K | 920.07 | 0.62
328.15 K | 915.26 | 0.59
333.15 K | 910.44 | 0.56
338.15 K | 905.6 | 0.54
343.15 K | 900.74 | 0.51
348.15 K | 895.87 | 0.49
353.15 K | 890.98 | 0.47

CN(C)C=O [dimethylformamide] + CCCCCCCC[n+]1ccn(C)c1.[Cl-]
[2]
Details | mass density [kg/m3] | viscosity [mPa·s]
303.15 K | 939.18 | 0.77
308.15 K | 934.41 | 0.72
313.15 K | 929.64 | 0.68
318.15 K | 924.86 | 0.65
323.15 K | 920.07 | 0.62
328.15 K | 915.26 | 0.59
333.15 K | 910.44 | 0.56
338.15 K | 905.6 | 0.54
343.15 K | 900.74 | 0.51
348.15 K | 895.87 | 0.49
353.15 K | 890.98 | 0.47

c1ccncc1 [pyridine]
[1]
Details | mass density [kg/m3] | viscosity [mPa·s]
303.15 K | 973.09 | 0.84
308.15 K | 968.06 | 0.79
313.15 K | 963.02 | 0.74
318.15 K | 957.97 | 0.7
323.15 K | 952.9 | 0.66
328.15 K | 947.82 | 0.62
333.15 K | 942.72 | 0.59
338.15 K | 937.6 | 0.56
343.15 K | 932.46 | 0.53
348.15 K | 927.3 | 0.51
353.15 K | 922.12 | 0.48

c1ccncc1 [pyridine] + CCCCCCCC[n+]1ccn(C)c1.[Cl-]
[2]
Details | mass density [kg/m3] | viscosity [mPa·s]
303.15 K | 973.09 | 0.84
308.15 K | 968.06 | 0.79
313.15 K | 963.02 | 0.74
318.15 K | 957.97 | 0.7
323.15 K | 952.9 | 0.66
328.15 K | 947.82 | 0.62
333.15 K | 942.72 | 0.59
338.15 K | 937.6 | 0.56
343.15 K | 932.46 | 0.53
348.15 K | 927.3 | 0.51
353.15 K | 922.12 | 0.48
